Assay [1] has as its system M3 muscarinic receptor (M3R). The class given is binding.
For another assay, the target named is muscarinic M3 receptor. The conditions noted are these: cited from earlier work.
Assay [2] relates to M3 muscarinic receptor (M3R). The class given is binding. As to conditions: immobilized M3R column; flow rates 0.4-3.6 mL/min.
In assay [3] the test system is immobilized M3R. The experiment in a line: Identification of M3R-binding bioactive compounds in Daturae Flos extract on M3R-immobilized column with HPLC-MS. The conditions noted are these: retained peak 2 of Daturae Flos extract, identified by HPLC-MS/MS. Here is the method: The heating under reflux method was used to make the anhydrous extract of […]. In brief, 10 g of dried DF was soaked in 100 mL of water for 0.5 h, boiled for 2 × 1 h, filtered, and concentrated to 10 mL via rotary evaporation at 60 °C under reduced pressure. A solution of 95% ethanol was applied to carry out alcohol sedimentation to reduce the alcohol content of the concentrated extract to 75%. The liquid supernatant was concentrated at 60 °C to obtain an herbal solution of 1.0 g/mL.
The M3R-immobilized column was utilized to analyze the active components in the DF extract with an Agilent 1100 chromatographic system. The mobile phase was 5 mM ammonium acetate buffer, the flow rate was 0.3 mL/min, the sample volume was 10 μL, and the detection wavelength was 254 nm. […] It was further analyzed using high performance liquid chromatography (HPLC)–mass spectrometry (MS).
An Eclipse XDB-C18 column (2.1 × 150 mm, 3.5 μm) was employed for chromatographic analysis with a 0.1% formic acid solution and methanol (40:60, v/v) as the mobile phase, a flow rate of 0.3 mL/min, and a column temperature of 30 °C. The MS analysis was carried out in both negative and positive modes with a scan range of 100–2000 amu, a nebulizing gas pressure of 30 psi, a flow rate of 8.0 L/min, and a dry gas temperature of […], respectively.

Assay [4] deals with immobilized M3R. Nature of the assay: Specificity of the M3R-immobilized column (retention times of ligands). It counts as binding.
The mark [5] stands for this setting: phosphate buffer 20 mM pH 7.4, flow rate 0.2 mL/min, injection 10 μL.

Counter-ions that a name gives are not always drawn.

For the compound `CN1[C@@H]2CC(OC(=O)[C@H](CO)c3ccccc3)C[C@H]1[C@@H]1O[C@@H]12.Cl` (single isomer, unassigned; (-)) [(−)-Scopolamine hydrochloride], the “KA by Frontal Analysis (association constant)” value in assay [1] is recorded as “(2.39 ± 0.03) × 10^4 M^−1”. Further, the “kd by the Radioligand Binding Assay” value on muscarinic M3 receptor is 0.00517 ± 0.0005 s⁻¹. Regarding `CN1[C@@H]2CC[C@H]1C[C@@H](OC(=O)C(CO)c1ccccc1)C2` (stereo partly shown) [Atropine sulfate, atropine sulfate], in assay [2], the “kd by the Peak Profiling Method (dissociation rate constant)” value came to 0.238 ± 0.00283 s⁻¹. Also, the “KA by Frontal Analysis (association constant)” value in assay [1] is listed as “(3.71 ± 0.03) × 10^4 M^−1”.

For `CN1[C@@H]2CC[C@H]1C[C@@H](OC(=O)[C@H](CO)c1ccccc1)C2` [Hyoscyamine, hyoscyamine], in the assay with immobilized M3R [3], the “binding to M3R of compounds from the DF extract” value is listed as “bind to M3R”. With `CC[C@@H]1C(=O)OC[C@@H]1Cc1cncn1C` [Pilocarpine], the “retention time on the M3R-immobilized column” value (from here on “retention time”) with immobilized M3R [4] (setting [5]) came to 5.4 min. For the compound `CCCCC(=O)N(Cc1ccc(-c2ccccc2-c2nnn[nH]2)cc1)[C@H](C(=O)O)C(C)C` [Valsartan], the “specific binding on the M3R-immobilized column” value with immobilized M3R [4] (judged from retention time vs system void time) is on record as “no specific binding occurred”. Also, the “retention time” value with immobilized M3R [4] (setting [5]) was determined as 2.3 min.

In the case of `CN1[C@@H]2C[C@@H](OC(=O)[C@H](CO)c3ccccc3)C[C@H]1[C@@H]1O[C@@H]12` [scopolamine], the “binding to M3R of compounds from the DF extract” value in the assay with immobilized M3R [3] is recorded as “bind to M3R”.

As to `O=N[O-].[Na+]` [sodium nitrite, Sodium nitrite], in the assay with immobilized M3R [4] (pH 7.4), the “retention time” value was 1.1 min.

These data come from publication PMC10139132, “Immobilization of M3 Muscarinic Receptor to Rapidly Analyze Drug—Protein Interactions and Bioactive Components in a Natural Plant” (International Journal of Molecular Sciences, 2023).
